Structures are written as SMILES.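 Exposure lasted 48 hours, with cells grown in 96-well plates and compounds tested at five concentrations. GI50 = concentration required for 50% inhibition of growth. TGI marks complete inhibition of growth.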

Holding throughout (experiment): NCI anticancer screen, dose series, 48 h
For assay [1], the system named is MALME-3M melanoma.
In assay [2] the test system is TK-10 renal.
Assay [3] concerns OVCAR-3 ovarian.
Assay [4] has as its system RPMI-8226 leukemia.
The subject of assay [5] is IGROV1 ovarian.
For assay [6], the system named is SNB-75 CNS.
In assay [7] the test system is SF-268 CNS.
Assay [8] concerns CAKI-1 renal.
Assay [9] relates to SK-MEL-5 melanoma.
Assay [10] has as its system NCI/ADR-RES ovarian.

Turning to `O=C1CC2C(=O)c3ccccc3CC2c2ccccc21` (stereo not drawn), the TGI in assay [1] was more than 100 µM; in [2] it was more than 100 µM; in assay [3] it was more than 100 µM; in assay [4], 64 µM; in assay [5], more than 100 µM; in assay [6], 75 µM. Moreover, the TGI in assay [7] was more than 100 µM.

`COC12CCC(=O)C=C1c1ccccc1N2C(C)=O` (stereo not drawn): the TGI in [8], in [3], in [4], in assay [5] and in assay [6] was more than 100 µM in each case.

On to `COc1ccc(NC(=O)CC2SC(=Nc3ccccc3C)NC2=O)c([N+](=O)[O-])c1` (stereo not drawn), for which the TGI in assay [1], in [2], in [3], in [4], in assay [5] and in assay [6] was more than 100 µM in each case. The compound further had a TGI in [7] of more than 100 µM.

As for `CCCNC(=O)C1C(=O)C(=O)N(CCC)C1=O` (stereo not drawn), the TGI in [1], in assay [8], in [2], in [3], in assay [4] and in assay [5] was more than 100 µM throughout. The TGI in assay [6], in assay [7] and in assay [9] was more than 100 µM in each case.

Take `O=C(/C=C/c1ccccc1)C(Br)C(Br)c1ccccc1` (stereo not drawn): the GI50 in [8] is 1.24 µM; in assay [3], 1.17 µM; in [4], 0.317 µM; in [6] it was 3.06 µM; in assay [7], 2.16 µM; in assay [10], 3.37 µM. Also, the TGI in assay [8] was 2.6 µM; in assay [3], 2.45 µM; in assay [4], 0.909 µM; in [6] it was 17.5 µM; in assay [7] it was 5.68 µM; in assay [10], 19 µM.

In the case of `CCNC(=O)COc1ccc(Br)cc1Br`, the TGI in assay [1], in assay [8], in assay [3], in assay [4], in assay [5] and in assay [6] was more than 100 µM throughout. Further, the TGI in assay [7] and in [9] was more than 100 µM each time.

With `O=c1/c(=C/c2ccccc2[N+](=O)[O-])sc2nc3ccccc3n12`, the TGI in assay [1] is more than 46.4 µM; in assay [8] it was more than 100 µM; in assay [2] it was more than 46.4 µM; in assay [3], more than 31.6 µM; in assay [4] it was 20.1 µM; in [5], more than 46.4 µM. In addition, the figures for the TGI in [6], in [7] and in [9] were 33.5 µM, more than 46.4 µM and more than 46.4 µM, respectively.

On to `C#Cc1cccc(N2C(=O)c3c(c(-c4ccccc4)c(-c4ccc(Cc5ccc(-c6c(-c7ccccc7)c7c(c(-c8ccccc8)c6-c6ccccc6)C(=O)N(c6cccc(C#C)c6)C7=O)cc5)cc4)c(-c4ccccc4)c3-c3ccccc3)C2=O)c1`, for which the TGI was more than 100 µM in assay [1]; 53.3 µM in [2]; more than 100 µM in assay [3]; more than 100 µM in [4]; 45.2 µM in assay [5]; 79.9 µM in [6]. For the same compound, the TGI in assay [7] was more than 100 µM; in [9], 62 µM.

With `CC1=CC(=O)CC2(C)CC[C@@H]3C[C@]12OC3(C)C` (stereo partly drawn), the TGI in assay [1], in assay [8], in assay [2], in assay [3], in assay [4] and in assay [5] was more than 100 µM each time. Also, the TGI in assay [6], in [7] and in assay [9] was more than 100 µM each time.

Take `O=C(CCC(=O)Nc1ccc(Cl)c(Cl)c1)CC(=O)c1ccc(Br)cc1`: the TGI in assay [1], in [8], in assay [2], in assay [3], in assay [4] and in [5] was more than 100 µM each time. In addition, the TGI in [6], in assay [7] and in assay [9] was more than 100 µM throughout.

With `CC1=C[C@H]2c3c([nH]c4ccccc34)C(c3c[nH]c4ccccc34)[C@H]2CC1` (stereo partly drawn), the TGI in assay [1] is 35.1 µM; in assay [8], 26.3 µM; in [2], 28.5 µM; in assay [4], 12 µM; in assay [5], 22.4 µM; in assay [6] it was 19 µM. The same compound registered a TGI in [9] of 28 µM.

On to `N#Cc1ccccc1C(Cl)(Cl)c1cnccn1`, for which the TGI was more than 100 µM in assay [8]; more than 100 µM in [2]; more than 100 µM in assay [5]; more than 100 µM in [7]; 87.3 µM in assay [9].

`CC(=O)N/N=C1\CC(C)(C)C2CCC1C2` (stereo not drawn): the TGI in [1], in assay [8], in [2], in [3], in assay [4] and in [5] was more than 100 µM in each case. Also, the TGI in [6], in assay [7] and in assay [9] was more than 100 µM throughout.

With `COC/C=C\COC`, the TGI in assay [1], in assay [8], in [2], in assay [3], in assay [4] and in [5] was more than 100 µM each time. For the same compound, the TGI in [6] and in [9] was more than 100 µM throughout.

Take `N/N=C1\C(=O)N(C2CCCCCC2)C(=O)C1C(=O)NC1CCCCCC1` (stereo not drawn): the TGI in [1] was 45.3 µM; in assay [2], more than 10 µM; in assay [3] it was more than 100 µM; in [5] it was more than 100 µM; in [7], more than 100 µM; in [9], 43.6 µM.

Values taken from PubChem BioAssay (NCI).
